Laboratory results: patent US8519002B2, “Colchicine solid complex; methods of making; and methods of use thereof” (Takeda Pharmaceuticals U.S.A., Inc., priority 2008, dated 2013)

What was measured:
[1] = for hygroscopicity suggested by DVS data: 5% to 95% RH; for weight gain observed on the sorption step: DVS whole sorption step
Experimental: Samples ae not dried prior to analysis. Equilibrium criteria used for analysis were less than 0.0100% weight change in 5 minutes, with a maximum equilibration time of 3 hours if the weight criterion was not met. Data are not corrected for the initial moisture content of the samples. Sodium chloride and polyvinypyrrolidine are used as calibration standards.

[2] = 40° C./75% RH; for XRPD of stressed sample (solid form after stress): 4 days, result in words
[3] = DVS desorption, result in words

Structure (SMILES) | hygroscopicity suggested by DVS data ([1]; result in words) | weight loss from 75 to 5% RH ([1]; DVS desorption, 75 to 5% RH) | weight loss from 95 to 75% RH ([1]; DVS desorption, 95 to 75% RH) | hysteresis upon desorption [1, 3] | weight gain from 5 to 75% RH ([1]; DVS sorption) | weight gain from 75 to 95% RH ([1]; DVS sorption, 75 to 95% RH (above 75% RH)) | weight gain observed on the sorption step [1] | Post DVS XRPD (solid form after DVS) ([1]; XRPD of sample after DVS) | net weight gain after 4 days [2] | XRPD of stressed sample (solid form after stress) [2] | weight loss from 95 to 5% RH ([1]; DVS desorption) | weight gain from 5 to 95% RH ([1]; DVS sorption, 5 to 95% RH) | weight loss upon equilibration at 5% RH ([1]; DVS sorption, equilibration at 5% RH) | net weight loss after sorption and desorption ([1]; DVS, desorption versus sorption) [%] | behaviour of material in DVS (deliquescence) ([1]; DVS, upon desorption, result in words) | net weight loss after 4 days [2]
COc1cc2c(c(OC)c1OC)-c1ccc(OC)c(=O)cc1[C@@H](NC(C)=O)CC2.O=C(O)C[C@H](O)C(=O)O [colchicine malic acid co-crystal] | hygroscopic | 9.6% weight loss from 75 to 5% RH | 15.0% weight loss from 95 to 75% RH | no hysteresis | 6.2% weight gain from 5 to 75% RH | 15.6% weight gain from 75 to 95% RH | approximately 22% | Colchicine malic acid co-crystal | approximately 5.4% | remains unchanged | – | – | – | – | – | –
COc1cc2c(c(OC)c1OC)-c1ccc(OC)c(=O)cc1[C@@H](NC(C)=O)CC2.Cc1ccc(S(=O)(=O)O)cc1 | not significantly hygroscopic | – | – | – | – | – | ~0.4% | – | approximately 1.0% | unchanged | 0.5% weight loss from 95 to 5% RH | 0.4% weight gain from 5 to 95% RH | 0.01% weight loss upon equilibration at 5% RH | ~0.01 | – | –
COc1cc2c(c(OC)c1OC)-c1ccc(OC)c(=O)cc1[C@@H](NC(C)=O)CC2.COc1cc2c(c(OC)c1OC)-c1ccc(OC)c(=O)cc1[C@@H](NC(C)=O)CC2.O=C(O)C(=O)O [colchicine oxalic acid co-crystal] | hygroscopic | – | – | Significant hysteresis | 0.5% weight gain from 5 to 75% RH | – | – | – | – | colchicine oxalic acid co-crystal, but minor disorder and shifting of the peaks is observed | 15.2% weight loss from 95 to 5% RH | – | – | – | deliquesces | approximately 6.7%
